According to patent US20110059154A1, “CCR5 ANTAGONISTS AS PROPHYLACTICS FOR PREVENTING HIV INFECTION AND METHODS OF INHIBITING TRANSMISSION OF SAME” (priority 2008, published 2011):
Structures can show the parent of a compound that is named as a salt.

What was measured:
[1] = system: HIV-1BaL; experiment: microbe, parasite or virus in culture; format: cell-based; settings: Human immunodeficiency virus 1, TZM-bl, read-out: Inhibition of HIV Infection (TZM-bL cells using luciferase reporter) IC50-RS
[2] = Compound toxicity, MTT dye reduction; format: cell-based; settings: human, TZM-bL cells, mean ± D (n independent experiments), read-out: Cytotoxicity CC50 (TZM-bL)
Description: Determination of compound toxicity. The viability of cells (TZM-bI) and following treatment with the compound was determined by the principle of MTT dye reduction (see references cited in Fletcher et. al.). All data are expressed as the percentage of viability for compound-treated wells compared to untreated cell control wells, and the 50% cytotoxic concentration (CC50) is defined as the concentration of the drug at which the cell/tissue viability was reduced to 50% of the drug-free control value.

[3] = Initial solubility assessment in solvents useful in making vaginal devices; format: physicochemical
Text: Initial solubility assessments were made of Compounds 28A, 23 and 5L to evaluate compatibility in various solvents useful in making vaginal devices.

[4] = Thermogravimetric analysis (TGA), thermal stability; format: physicochemical
Description: Thermogravimetric analysis (TGA) was conducted with a TGA Q500 from TA instruments. A typical experiment involved heating the material in a platinum pan under a nitrogen purge from 25° C. to 350° C. at 10° C. per minute. Data was analyzed using the Universal using the Universal Analysis software program from TA Instruments.
Thermogravimetric analysis (TGA) was performed on each form to evaluate the thermal stability and presence of any volatiles in the sample (FIG. 3). The onset of thermal degradation is estimated using the derivative of weigh loss curve and was measured as 276° C. and 270° C. for forms 1 and 2 respectively.

[5] = Competition slurry experiment, relative thermodynamic stability of forms 1 and 2; format: physicochemical; settings: slurry in 2-propanol and in MTBE, seeded with both forms, 1 week; PXRD and DSC
Description: To assess the relative thermodynamic stability of forms 1 and 2, a competition slurry experiment was performed. In this experiment, the as received amorphous material was slurried in one vial containing 2-propanol and another containing MTBE. Seeds of both form 1 and form 2 were added to both vials and stirring continued for 1 week. The solid material was filtered from each vial and analyzed with PXRD and DSC.

## CO/N=C(\c1ccc(Br)cc1)C1CCN(C2(C)CCN(C(=O)c3c(C)ncnc3C)CC2)CC1 [Compound 5L Tartrate]
[1]
  IC50: 0.119 ± 0.0924 µM
[2]
  CC50: 476 ± 117 µM

## CCC[C@@H](c1ccc(C(F)(F)F)cc1)N1CCN(C2(C)CCN(C(=O)c3c(C)ncnc3C)CC2)C[C@@H]1C [Compound 28A]
[3]; PEG 400, 1.12 g/cm^3
  Solubility (percent in parentheses): ≥ 3.4%
[3]; PG (propyleneglycol), 1.038 g/cm^3
  Solubility (percent in parentheses): ≥ 3.6%
[3]; organic solvent or mixture, PEG 400
  solubility: ≥ 39 mg/mL
[3]; organic solvent or mixture, PG (propyleneglycol)
  solubility: ≥ 38.4 mg/mL
[3]; pH 4.4, aqueous buffer, pH 4.4 citrate buffer
  solubility: ≥ 11.4 mg/mL
[3]; pH 7.5, aqueous buffer, pH 7.5 phosphate buffer
  solubility: < 0.33 mg/mL
[3]; water, DI H20
  solubility: ≥ 3.85 mg/mL

## CO/N=C(\c1ccc(Br)cc1)C1CCN(C2(C)CCN(C(=O)c3c(C)ncnc3C)CC2)CC1 [form 1]
[4]
  onset of thermal degradation: 276 °C
[5]
  relative thermodynamic stability of forms 1 and 2: more thermodynamically stable form
